{"source": "paper doi:10.1101/2021.05.10.443505v2", "about": "(biorxiv, 2021)", "target": "T1, human ID2 protein (Homo sapiens, UniProt Q02363)", "T1 sequence (Q02363 1-134)": "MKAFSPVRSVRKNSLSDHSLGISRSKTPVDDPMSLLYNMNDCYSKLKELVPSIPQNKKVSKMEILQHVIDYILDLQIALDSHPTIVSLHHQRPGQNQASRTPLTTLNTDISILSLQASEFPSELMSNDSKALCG", "assay": "SPR", "type": "binding"}
{"smiles": "O=C(CC1(O)C(=O)N(Cc2cccc(Cl)c2)c2ccccc21)c1ccccn1", "note": "(stereo not shown) [AK-778-XXMU]", "values": [{"measurement": "Kd", "result": 129, "unit": "nM"}]}
